Data as given in the NIST ThermoML archive (doi:10.1016/j.jct.2018.04.005).

What was measured:
[1] = 100 kPa, Liquid, Vibrating tube method
[2] = xn = mol fraction of the nth substance listed; details: 100 kPa, Liquid, Vibrating tube method

CCCCn1cc[n+](C)c1.F[P-](F)(F)(F)(F)F [1-butyl-3-methylimidazolium hexafluorophosphate]
[1]
Details | mass density [kg/m3]
293.15 K | 1370.73
298.15 K | 1366.5
303.15 K | 1361.63
308.15 K | 1359.45
313.15 K | 1355.23
318.15 K | 1351.63
323.15 K | 1347.23

CCCCn1cc[n+](C)c1.F[B-](F)(F)F [1-butyl-3-methylimidazolium tetrafluoroborate]
[1]
Details | mass density [kg/m3]
293.15 K | 1202.47
298.15 K | 1200.1
303.15 K | 1195.48
308.15 K | 1191.65
313.15 K | 1187.83
318.15 K | 1184.13
323.15 K | 1180.33

CCCC[n+]1ccn(C)c1.O=S(=O)([N-]S(=O)(=O)C(F)(F)F)C(F)(F)F
[1]
Details | mass density [kg/m3]
293.15 K | 1442.3
298.15 K | 1435.96
303.15 K | 1431.96
308.15 K | 1427.23
313.15 K | 1422.19
318.15 K | 1417.89
323.15 K | 1412.96

CCCCn1cc[n+](C)c1.F[P-](F)(F)(F)(F)F [1-butyl-3-methylimidazolium hexafluorophosphate] + COC(=O)OC
mass density [kg/m3], [2]
Details | x1 = 0.034 | x1 = 0.0734 | x1 = 0.1196 | x1 = 0.1744 | x1 = 0.2407 | x1 = 0.3222 | x1 = 0.4251 | x1 = 0.559 | x1 = 0.7404 | x1 = 1
293.15 K | 1099.2 | 1128.63 | 1159.82 | 1189.04 | 1220.08 | 1249.42 | 1278.97 | 1308.93 | 1339.9 | 1370.73
298.15 K | 1092.76 | 1122.91 | 1154.74 | 1183.63 | 1214.03 | 1244.28 | 1274.43 | 1303.88 | 1335.38 | 1366.5
303.15 K | 1086.29 | 1116.15 | 1148.32 | 1177.52 | 1208.51 | 1238.99 | 1269.31 | 1298.92 | 1330.3 | 1361.63
308.15 K | 1080.03 | 1110.74 | 1142.49 | 1173.19 | 1203.38 | 1234.34 | 1265.31 | 1295.41 | 1327.51 | 1359.45
313.15 K | 1073.79 | 1104.95 | 1136.01 | 1167.14 | 1197.82 | 1229.08 | 1260.15 | 1290.91 | 1322.98 | 1355.23
318.15 K | 1067.23 | 1098.5 | 1130.22 | 1161.77 | 1192.91 | 1224.39 | 1255.4 | 1286.76 | 1318.91 | 1351.63
323.15 K | 1060.39 | 1092.27 | 1125.56 | 1156.96 | 1187.95 | 1219.55 | 1250.82 | 1282.14 | 1314.13 | 1347.23

COC(=O)OC [dimethyl carbonate]
[1]
Details | mass density [kg/m3]
293.15 K | 1069.83
298.15 K | 1063.25
303.15 K | 1056.63
308.15 K | 1050.08
313.15 K | 1043.44
318.15 K | 1036.62
323.15 K | 1029.88

COC(=O)OC [dimethyl carbonate] + CCCCn1cc[n+](C)c1.F[P-](F)(F)(F)(F)F
[2], x2 = 0
Details | mass density [kg/m3]
293.15 K | 1069.83
298.15 K | 1063.25
303.15 K | 1056.63
308.15 K | 1050.08
313.15 K | 1043.44
318.15 K | 1036.62
323.15 K | 1029.88
